We go through 10 compounds from ChEMBL document CHEMBL2331297, “Potent and selective tariquidar bioisosters as potential PET radiotracers for imaging P-gp” (Bioorg Med Chem Lett, 2013).

Some results are limits rather than exact numbers.

Data set [1] concerns the target ATP-dependent translocase ABCB1 (Homo sapiens, UniProt P08183). Put plainly: Activity at MDR1 (unknown origin) expressed in MDCK cells using calcein AM as substrate incubated for 30 mins prior to substrate addition measured after 30 mins by fluorometric analysis. In kind it is cell-based.
For data set [2], the target named is Multidrug resistance-associated protein 1 (Homo sapiens, UniProt P33527). Nature of the data set: Activity at MRP1 (unknown origin) expressed in MDCK cells using calcein AM as substrate incubated for 30 mins prior to substrate addition measured after 30 mins by fluorometric analysis. The data set is classed as cell-based.
Sequence of Multidrug resistance-associated protein 1 (P33527 whole entry): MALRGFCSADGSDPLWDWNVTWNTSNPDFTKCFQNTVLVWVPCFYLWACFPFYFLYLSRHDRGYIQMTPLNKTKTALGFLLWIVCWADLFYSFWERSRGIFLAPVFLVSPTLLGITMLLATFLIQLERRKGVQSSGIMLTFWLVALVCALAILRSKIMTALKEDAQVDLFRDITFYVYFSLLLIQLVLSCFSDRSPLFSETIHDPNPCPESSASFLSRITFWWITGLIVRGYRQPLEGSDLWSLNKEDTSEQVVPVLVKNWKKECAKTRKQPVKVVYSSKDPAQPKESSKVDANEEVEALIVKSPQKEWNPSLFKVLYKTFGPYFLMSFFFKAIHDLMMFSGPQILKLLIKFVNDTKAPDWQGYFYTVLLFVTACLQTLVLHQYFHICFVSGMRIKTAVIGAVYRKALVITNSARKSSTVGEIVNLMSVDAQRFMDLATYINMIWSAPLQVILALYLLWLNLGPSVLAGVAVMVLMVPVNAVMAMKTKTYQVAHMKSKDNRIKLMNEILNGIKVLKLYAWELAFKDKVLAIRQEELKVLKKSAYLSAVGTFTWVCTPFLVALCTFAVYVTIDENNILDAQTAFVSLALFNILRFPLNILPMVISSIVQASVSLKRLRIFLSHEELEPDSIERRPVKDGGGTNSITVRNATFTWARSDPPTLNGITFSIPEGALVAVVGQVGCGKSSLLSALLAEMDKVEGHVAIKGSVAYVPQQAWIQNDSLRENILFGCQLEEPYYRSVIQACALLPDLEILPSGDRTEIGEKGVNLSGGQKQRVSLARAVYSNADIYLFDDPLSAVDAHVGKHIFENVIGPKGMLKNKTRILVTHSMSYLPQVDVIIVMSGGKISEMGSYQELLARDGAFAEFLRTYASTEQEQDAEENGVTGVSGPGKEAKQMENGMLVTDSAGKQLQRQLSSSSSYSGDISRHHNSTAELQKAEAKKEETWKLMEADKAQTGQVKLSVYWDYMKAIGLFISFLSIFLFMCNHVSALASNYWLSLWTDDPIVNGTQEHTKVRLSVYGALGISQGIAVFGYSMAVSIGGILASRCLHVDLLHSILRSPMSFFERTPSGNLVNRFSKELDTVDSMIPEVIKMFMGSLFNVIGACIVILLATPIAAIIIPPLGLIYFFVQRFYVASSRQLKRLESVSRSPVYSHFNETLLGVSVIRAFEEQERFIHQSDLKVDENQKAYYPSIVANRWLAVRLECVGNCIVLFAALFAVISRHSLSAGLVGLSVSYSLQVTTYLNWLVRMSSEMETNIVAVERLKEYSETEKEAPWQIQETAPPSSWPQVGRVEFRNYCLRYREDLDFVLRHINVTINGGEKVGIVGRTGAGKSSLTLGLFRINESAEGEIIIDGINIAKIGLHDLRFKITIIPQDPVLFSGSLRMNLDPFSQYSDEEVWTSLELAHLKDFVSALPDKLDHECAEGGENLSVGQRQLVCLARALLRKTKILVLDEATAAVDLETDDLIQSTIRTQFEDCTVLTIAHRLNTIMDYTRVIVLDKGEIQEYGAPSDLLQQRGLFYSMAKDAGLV
For data set [3], the target named is T1, Broad substrate specificity ATP-binding cassette transporter ABCG2 (Homo sapiens, UniProt Q9UNQ0).
T1 sequence (Q9UNQ0 whole entry): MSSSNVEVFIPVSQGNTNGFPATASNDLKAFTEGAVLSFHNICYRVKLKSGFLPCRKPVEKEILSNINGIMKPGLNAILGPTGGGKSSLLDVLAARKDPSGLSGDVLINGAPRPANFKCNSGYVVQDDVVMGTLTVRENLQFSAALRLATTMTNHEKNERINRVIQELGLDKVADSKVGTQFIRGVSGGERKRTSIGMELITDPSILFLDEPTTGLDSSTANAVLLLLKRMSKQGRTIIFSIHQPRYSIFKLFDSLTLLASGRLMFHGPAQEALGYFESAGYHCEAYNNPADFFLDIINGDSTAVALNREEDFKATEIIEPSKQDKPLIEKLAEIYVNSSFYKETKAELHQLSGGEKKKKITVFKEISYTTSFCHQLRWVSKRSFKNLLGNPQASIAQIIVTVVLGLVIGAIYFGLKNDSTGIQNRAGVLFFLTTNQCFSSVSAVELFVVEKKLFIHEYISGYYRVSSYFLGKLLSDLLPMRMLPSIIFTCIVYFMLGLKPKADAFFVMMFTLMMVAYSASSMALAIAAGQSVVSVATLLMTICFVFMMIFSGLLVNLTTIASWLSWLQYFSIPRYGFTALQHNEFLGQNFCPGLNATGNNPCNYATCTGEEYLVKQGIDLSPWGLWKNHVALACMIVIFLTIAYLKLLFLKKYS
Put plainly: Activity at BCRP (unknown origin) expressed in MDCK cells using […] as substrate incubated for 30 mins prior to substrate addition measured after 30 mins by fluorometric analysis. In kind it is cell-based.

A short description of data set [4]: Efflux ratio of apparent permeability from basolateral to apical to apical to basolateral side of human Caco2 cells after 120 mins. The data set is classed as ADME, cell-based. The settings on record: Caco-2.
In data set [5] the target is T2, MDR1 (ABCB1, P-gp) (Homo sapiens, UniProt P08183). Nature of the data set: Activity at MDR1 (unknown origin) expressed in MDCK cells assessed as ATPase activity at 50 uM after 2 hrs by ATPlite assay. The data set is classed as cell-based. The settings on record: MDCK cells expressing MDR1, read-out: Activity. (ATP-based viability assays read luminescence as a measure of living cells.)
T2 sequence (P08183 whole entry): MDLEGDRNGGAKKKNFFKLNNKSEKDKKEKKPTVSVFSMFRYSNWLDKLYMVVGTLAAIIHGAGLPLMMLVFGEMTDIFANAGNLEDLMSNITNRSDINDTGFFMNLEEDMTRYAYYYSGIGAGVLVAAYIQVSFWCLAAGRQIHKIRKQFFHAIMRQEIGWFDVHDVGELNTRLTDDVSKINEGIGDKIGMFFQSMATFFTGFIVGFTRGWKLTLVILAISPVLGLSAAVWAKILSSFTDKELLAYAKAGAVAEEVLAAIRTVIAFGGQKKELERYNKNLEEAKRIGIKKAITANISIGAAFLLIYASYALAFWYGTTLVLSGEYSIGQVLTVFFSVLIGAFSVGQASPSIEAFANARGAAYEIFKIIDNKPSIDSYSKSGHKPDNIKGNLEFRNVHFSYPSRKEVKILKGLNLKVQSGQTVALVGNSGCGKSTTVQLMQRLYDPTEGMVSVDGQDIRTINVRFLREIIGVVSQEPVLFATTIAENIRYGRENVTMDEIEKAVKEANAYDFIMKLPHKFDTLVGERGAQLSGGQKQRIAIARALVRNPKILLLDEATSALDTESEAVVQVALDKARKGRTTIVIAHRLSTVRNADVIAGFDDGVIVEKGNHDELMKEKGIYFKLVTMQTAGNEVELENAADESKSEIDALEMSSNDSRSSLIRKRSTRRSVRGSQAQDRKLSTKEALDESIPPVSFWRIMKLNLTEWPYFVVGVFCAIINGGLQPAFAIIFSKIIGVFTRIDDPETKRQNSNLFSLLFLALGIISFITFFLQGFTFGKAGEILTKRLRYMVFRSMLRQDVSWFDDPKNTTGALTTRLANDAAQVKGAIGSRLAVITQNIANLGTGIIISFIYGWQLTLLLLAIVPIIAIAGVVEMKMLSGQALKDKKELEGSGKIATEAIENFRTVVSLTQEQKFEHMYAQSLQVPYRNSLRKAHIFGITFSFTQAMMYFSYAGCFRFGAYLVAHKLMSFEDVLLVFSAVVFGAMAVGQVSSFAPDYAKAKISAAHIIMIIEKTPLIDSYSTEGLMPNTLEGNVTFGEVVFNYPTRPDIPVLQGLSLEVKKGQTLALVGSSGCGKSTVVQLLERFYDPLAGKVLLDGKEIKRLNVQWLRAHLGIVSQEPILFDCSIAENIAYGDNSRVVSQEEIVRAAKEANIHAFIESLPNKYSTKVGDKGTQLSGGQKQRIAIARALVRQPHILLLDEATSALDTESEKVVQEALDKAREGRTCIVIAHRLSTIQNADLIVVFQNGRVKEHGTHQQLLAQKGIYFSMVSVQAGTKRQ

Data set [6] has as its target T2, MDR1 (ABCB1, P-gp). Put plainly: Ratio of MC90 EC50 to compound EC50 for MDR1 (unknown origin) by fluorometric analysis. The settings on record: not told, read-out: Ratio EC50.

Sequence of ATP-dependent translocase ABCB1 (P08183 whole entry): as above

What is called EC50 is the concentration needed to bring the measured effect to its halfway point. With `COc1cc2c(cc1OC)CN(Cc1ccc(Oc3ccc(C(N)=O)cn3)cc1)CC2`, the EC50 is 19 µM in data set [1] and greater than 100 µM in data set [2].

In general, efflux ratio refers to a quotient of directional permeabilities that is used to spot active efflux. In the case of `COc1cc2c(cc1OC)CN(Cc1ccc(Oc3ccc(-c4nc(-c5ccc(F)cc5)cs4)cn3)cc1)CC2`, the EC50 was 1 µM in data set [3], 0.41 µM in data set [1] and greater than 100 µM in data set [2]. Moreover, the efflux ratio at 2 h in data set [4] worked out at 4.5. Moreover, the activity at 2 h, 50 µM in data set [5] worked out at 18%. For the same compound, the selectivity ratio in data set [6] worked out at 10.

Take `COc1cc2c(cc1OC)CN(Cc1ccc(Oc3ccc(-c4nc(-c5cccc(O)c5)cs4)cn3)cc1)CC2`: the EC50 was 0.018 µM in data set [3], 0.25 µM in data set [1] and greater than 100 µM in data set [2]. In data set [4], the efflux ratio at 2 h came to 0.9. In data set [5], the activity at 2 h, 50 µM was determined as 20%. Also, the selectivity ratio in data set [6] worked out at 10.

`COc1cc2c(cc1OC)CN(CCc1ccc(NC(=O)c3cc(OC)c(OC)cc3NC(=O)c3cnc4ccccc4c3)cc1)CC2` [TARIQUIDAR]: the efflux ratio at 2 h in data set [4] is 22. For the same compound, in data set [5], the activity at 2 h, 50 µM came out at 30%.

For the compound `COc1cc2c(cc1OC)CN(Cc1ccc(Oc3ccc(C(N)=S)cn3)cc1)CC2`, the EC50 in data set [1] was 11 µM; in data set [2] it was greater than 100 µM.

With `COc1cc2c(cc1OC)CN(CC/C=C1\CCCc3c(OC)cccc31)CC2`, the EC50 in data set [3] came to 90 µM. Besides, the efflux ratio at 2 h in data set [4] worked out at 1.64.

As to `COc1cc2c(cc1OC)CN(Cc1ccc(Oc3ccc(-c4nc(-c5ccc([N+](=O)[O-])cc5)cs4)cn3)cc1)CC2`, the figures for the EC50 in data set [3], in data set [1] and in data set [2] were 10 µM, 0.51 µM and greater than 100 µM, respectively. Further, in data set [4], the efflux ratio at 2 h worked out at 2.7. Also, the activity at 2 h, 50 µM in data set [5] came to 16%. In data set [6], the selectivity ratio was 10.

Regarding `COc1ccc(-c2ccc(CN3CCc4cc(OC)c(OC)cc4C3)cc2)cc1`, the concentration giving a half-maximal response (EC50) in data set [3] is 15 µM; in data set [1], 0.6 µM; in data set [2], 21 µM. Further, the efflux ratio at 2 h in data set [4] is 2.6.

Turning to `COc1ccc(-c2nc(CN3CCc4cc(OC)c(OC)cc4C3)cs2)cc1`, the EC50 was 30 µM in data set [3], 1.94 µM in data set [1] and 2.7 µM in data set [2]. In addition, the efflux ratio at 2 h in data set [4] is 6.1.

Consider `COc1cccc(-c2csc(-c3ccc(Oc4ccc(CN5CCc6cc(OC)c(OC)cc6C5)cc4)nc3)n2)c1`, for which the EC50 was 0.5 µM in data set [3], 0.95 µM in data set [1] and greater than 100 µM in data set [2]. The efflux ratio at 2 h in data set [4] worked out at 2.5. Also, the activity at 2 h, 50 µM in data set [5] stood at 20%. Besides, the selectivity ratio in data set [6] is 10.
